Experiment [1] concerns Candida albicans. Nature of the experiment: Antifungal activity against Candida albicans assessed as reduction in fungal growth incubated for 48 hrs by broth micro-dilution method. Format: functional. (Dilution methods test growth across graded concentrations, often in twofold steps.)
In experiment [2] the test system is Saccharomyces cerevisiae. The experiment in a line: Antimicrobial activity against Saccharomyces cerevisiae assessed as zone of inhibition. Format: functional.
In experiment [3] the test system is Cryptococcus neoformans. Nature of the experiment: Antifungal activity against Cryptococcus neoformans assessed as reduction in fungal growth incubated for 24 hrs by broth microdilution method. In kind it is functional.
Experiment [4] deals with Candida albicans. The experiment in a line: Antifungal activity against Candida albicans assessed as zone of inhibition by disc diffusion method. Format: functional.
Experiment [5] deals with Saccharomyces cerevisiae. Nature of the experiment: Antimicrobial activity against Saccharomyces cerevisiae assessed as zone of inhibition by disc diffusion method. Format: functional. Background: In agar diffusion tests the substance spreads into inoculated agar from a disc or well.
The test system of experiment [6] is Candida albicans. The experiment in a line: Antifungal activity against Candida albicans MTCC 227 by disc diffusion method. In kind it is functional, organism-based.
Experiment [7] has as its system Trichophyton rubrum. The experiment in a line: Antifungal activity against Trichophyton rubrum assessed as diameter of zone inhibition. Format: functional.
Experiment [8] concerns Candida albicans. The experiment in a line: Antimicrobial activity against Candida albicans ATCC 64124 assessed as reduction in microbial growth by CLSI protocol based micro-broth dilution method. Format: functional.
Experiment [9] deals with Candida albicans. The experiment in a line: Antifungal activity against Candida albicans. Format: functional.
Experiment [10] relates to Geotrichum candidum. Nature of the experiment: Antifungal activity against Geotrichum candidum. Format: functional.
For experiment [11], the system named is Aspergillus niger. The experiment in a line: Antifungal activity against Aspergillus niger MTCC 282 by disc diffusion method. Format: functional, organism-based.
The test system of experiment [12] is Candida albicans. The experiment in a line: Antifungal activity against Candida albicans assessed as zone of inhibition by serial dilution and disc diffusion method. In kind it is functional.
The test system of experiment [13] is Candida albicans. Nature of the experiment: Antifungal activity against Candida albicans NRRL-Y477 assessed as zone of inhibition by disc diffusion method. In kind it is functional.
Experiment [14] concerns Syncephalastrum racemosum. Nature of the experiment: Antifungal activity against Syncephalastrum racemosum assessed as zone of inhibition. In kind it is functional.
Experiment [15] relates to Aspergillus flavus. Nature of the experiment: Antimicrobial activity against Aspergillus flavus assessed as zone of inhibition. In kind it is functional.
The subject of experiment [16] is Aspergillus fumigatus. Nature of the experiment: Antifungal activity against Aspergillus fumigatus assessed as zone of inhibition. Format: functional.
The subject of experiment [17] is Candida albicans. Nature of the experiment: Antifungal activity against Candida albicans ATCC 10231. In kind it is functional.
Experiment [18] concerns Pichia kudriavzevii. The experiment in a line: Antifungal activity against Candida krusei ATCC 6258. In kind it is functional.
The subject of experiment [19] is Candida parapsilosis. Nature of the experiment: Antifungal activity against Candida parapsilosis ATCC 22019. The settings on record: Lodderomyces parapsilosis. Format: functional.
Experiment [20] relates to Nakaseomyces glabratus. The experiment in a line: Antifungal activity against Candida glabrata ATCC 90030. Format: functional.
Experiment [21] concerns Candida albicans. The experiment in a line: Antifungal activity against Candida albicans assessed as diameter of zone inhibition. In kind it is functional.
The subject of experiment [22] is Botrytis cinerea. Nature of the experiment: Antifungal activity against Botrytis cinerea assessed as reduction in fungal growth at 50 ug/ml relative to control. Format: functional.

SMILES strings stand for the structures. ≈ marks a conversion by molar mass, not a printed value.

The term MIC denotes the lowest concentration that inhibits growth of the organism. For orientation: EC50 means the concentration at which the effect is half-maximal. High values mean a need for much substance, low ones an effect from little substance. A word on the MIC50: it is an inhibitory concentration at the 50% level, which refers to growth in some studies and to a panel of isolates in others. Read a high MIC50 as lower susceptibility. Usually inhibition stands for the change of the read-out against control, counted positive when it falls.

In the case of `Cc1ccc(S(=O)(=O)Nc2nc(/N=N/c3c(N)nn4c(C)cc(=O)[nH]c34)cs2)cc1`, the minimal inhibitory concentration (MIC) in experiment [1] amounted to 3.12 µg/mL (≈ 7.02 µM).

Regarding `COc1ccc(/C=N/Nc2ncnc3[nH]ccc23)cc1OC`, the “inhibition zone (IZ)” value in [2] stood at 24 mm.

Consider `Cc1nc(NC(=O)c2cc(C(F)(F)F)cc(C(F)(F)F)c2)c2c(C(F)(F)F)cc(-c3ccccc3)nc2n1`, for which the MIC in [3] came out at 12.5 µg/mL (≈ 23 µM).

Turning to `C(=N\c1ncnc2[nH]ccc12)/c1ccccc1`, the “inhibition zone (IZ)” value came out at 15 mm in experiment [4] and 13 mm in experiment [5].

Consider `C[C@@H]1C[C@@H]([C@H](O)CC2CC(=O)NC(=O)C2)C(=O)[C@@H](C)C1` [CYCLOHEXIMIDE], for which the MIC in [1] was determined as 3.12 µg/mL (≈ 11.1 µM).

In the case of `Cc1nc(NC(=O)c2cc3ccccc3o2)c2c(C(F)(F)F)cc(-c3ccccc3)nc2n1`, the MIC in experiment [3] is 12.5 µg/mL (≈ 27.9 µM).

`COC(=O)Nc1nc2ccccc2[nH]1` [CARBENDAZIM] had an EC50 in experiment [6] of 0.21 µg/mL (≈ 1.1 µM).

With `Oc1nnc(-c2ccc(Cl)cc2)cc1Br`, the “inhibition zone (IZ)” value in [7] is 14 mm.

For the compound `Cc1nc(-c2ccc(C(C)(C)C)cc2)sc1-c1ccnc(N[C@H]2CCCCC2CN)n1` (some centres not stated), the MIC in experiment [8] stood at 4 µg/mL.

Turning to `CCOC(=O)Cc1nc2c3[se]c4nc5c(nc4c3ncn2n1)c(C)nn5-c1ccccc1`, the MIC in [9] worked out at 8 µg/mL (≈ 16.3 µM); in [10], 6 µg/mL (≈ 12.2 µM).

For `CC(=O)N1N=C(C2=C(C)NC(=O)NC2c2ccc(F)cc2)OC1c1cccc([N+](=O)[O-])c1` (configuration not stated), the EC50 in experiment [6] and in experiment [11] was 0.16 µg/mL (≈ 0.364 µM) each time.

In the case of `Cc1nc(-c2ccc(C(C)(C)C)cc2)sc1-c1ccnc(NCCCN)n1`, the minimal inhibitory concentration (MIC) in experiment [8] came out at 4 µg/mL.

With `Brc1cc(Br)cc(/C=N/Nc2ncnc3[nH]ccc23)c1`, the “inhibition zone (IZ)” value in experiment [12] and in [2] was 21 mm in each case.

On to `O=C(CSc1nc2sc3c(c2c(=O)n1-c1ccc(Cl)cc1)CCCC3)Nc1nc(-c2cccc(Br)c2)cs1`, for which the “inhibition zone (IZ)” value in experiment [13] turned out to be 18 mm.

As to `CCc1nnc2c(Nc3ccc(C(=O)/C=C/c4ccc(C)cc4)cc3)nc3ccccc3n12`, in experiment [14], the “inhibition zone (IZ)” value is recorded as 20 mm.

For `Nc1ncc(C2=NC3=Nc4ccccc4C3=N2)c(N)n1`, the “inhibition zone (IZ)” value in experiment [15] was 18 mm.

With `CCc1nnc2c(Nc3ccc(C(=O)/C=C/c4ccc(OC)cc4)cc3)nc3ccccc3n12`, the “inhibition zone (IZ)” value in experiment [16] worked out at 21 mm.

Take `NC(=S)NNC(=O)c1c[nH]c2ncnn2c1=O`: the minimum inhibitory concentration (MIC) in experiment [3] came out at 25 µg/mL (≈ 98.7 µM).

Regarding `CCc1nnc2c(Nc3ccc(C4=NN(c5ccccc5)C(c5ccc(OC)cc5)C4)cc3)nc3ccccc3n12` (configuration not stated), in [14], the “inhibition zone (IZ)” value came out at 21 mm.

Regarding `CCc1nnc2c(Nc3ccc(C4=NN(C(N)=O)C(c5ccc(Cl)cc5)C4)cc3)nc3ccccc3n12` (configuration not stated), the “inhibition zone (IZ)” value is 21 mm in [14] and 22 mm in experiment [16].

For the compound `COc1nc2ccccc2nc1N1CC(C(=O)O)=CC1=O`, in experiment [17], the MIC50 worked out at 0.78 µg/mL (≈ 2.73 µM). Moreover, the MIC in experiment [18], in experiment [19] and in [20] was 0.78 µg/mL (≈ 2.73 µM) throughout.

Consider `CC(=O)N1N=C(C2=C(C)NC(=O)NC2c2ccc(F)cc2)OC1c1ccc(Cl)cc1` (configuration not stated), for which the half-maximal effective concentration (EC50) in experiment [6] and in experiment [11] was 0.2 µg/mL (≈ 0.466 µM) in each case.

Turning to `Fc1cccc(/C=N/c2ncnc3[nH]ccc23)c1`, the “inhibition zone (IZ)” value in experiment [4] is listed as 15 mm; in experiment [5] it was 21 mm.

For the compound `Cc1c(-c2ccc(Br)cc2)nnc(O)c1Br`, the “inhibition zone (IZ)” value in experiment [7] turned out to be 14 mm.

As for `Cc1ccc(S(=O)(=O)Nc2nc(/N=N/c3c(N)nn4c(-c5ccc(Cl)cc5)c(C#N)c(N)nc34)cs2)cc1`, the MIC in experiment [1] was determined as 100 µg/mL (≈ 177 µM).

As for `CCOC(=O)C1CC(C(=O)c2ccccc2)N2N=C(c3ccc(Cl)cc3)C=CC12` (configuration not stated), in [21], the “inhibition zone (IZ)” value was found to be 24 mm.

On to `O=C1CNC(c2ccc(Cl)cc2)N1c1nc(-c2ccc(Cl)cc2)cc(-c2ccccn2)n1` (configuration not stated), for which, in [15], the “inhibition zone (IZ)” value is 10 mm.

Regarding `O=[N+]([O-])c1cccc(/C=N/c2ncnc3[nH]ccc23)c1`, the “inhibition zone (IZ)” value stood at 15 mm in experiment [4] and 13 mm in [5].

In the case of `CCc1nnc2c(Nc3ccc(C4=NN(C(N)=S)C(c5ccccc5)C4)cc3)nc3ccccc3n12` (configuration not stated), in experiment [14], the “inhibition zone (IZ)” value was 20 mm.

In [17], `Nc1ccc(C(=O)NNc2nc3ccccc3nc2Cl)cc1` had an MIC50 of 0.78 µg/mL (≈ 2.49 µM). Also, the MIC in [18], in experiment [19] and in [20] was 0.78 µg/mL (≈ 2.49 µM) throughout.

`Cc1ccc(S(=O)(=O)Nc2nc(/N=N/c3c(N)nn4c(-c5ccc([N+](=O)[O-])cc5)c(C#N)c(N)nc34)cs2)cc1`: in [1], the MIC worked out at 25 µg/mL (≈ 43.4 µM).

Take `O=C(Nc1ccc(F)c(Cl)c1)c1ccc(Oc2cc(C(F)(F)F)ncn2)cc1`: the inhibition at 50 µg/mL in experiment [22] was determined as 91.7%.

Take `O=C1CSC(c2ccccc2)N1c1nc(-c2ccccc2)cc(-c2ccccn2)n1` (configuration not stated): the “inhibition zone (IZ)” value in experiment [15] is given as 10 mm.

The values are drawn from ChEMBL document CHEMBL6103565, “Current strategies in design and synthesis of antifungals hybrid and chimeric diazine derivatives” (Bioorg Med Chem, 2025).
